Data from patent US20090233966A1, “Analogues of the Azinomycins as Anti-Tumour Agents and as Prodrugs” (School of Pharmacy, University of London, priority 2005, published 2009).

Legend:
Test in all cases: NCI 60 cell panel growth inhibition
Format in all cases: cell-based, human
435 = details: BREAST, read-out: anti-tumour activity GI50
From the text: (§1) Examples 6 and 7 make use of the NCl 60 cell panel. This is an in vitro cell line screening project providing direct support to the National Cancer Institute's USA Developmental Therapeutic Programme for anti cancer discovery. The methodolgy for the cell line's operation is described by Boyd et al in Drug Development Research 1995, 34, 91-109.

786-0 = details: RENAL, read-out: anti-tumour activity GI50
From the text: as §1

A498 = details: RENAL, read-out: anti-tumour activity GI50
From the text: as §1

A549/ATCC = details: NSCLC, read-out: anti-tumour activity GI50
From the text: as §1

ACHN = details: RENAL, read-out: anti-tumour activity GI50
From the text: as §1

BT-549 = details: BREAST, read-out: anti-tumour activity GI50
From the text: as §1

CAKI-1 = details: RENAL, read-out: anti-tumour activity GI50
From the text: as §1

CCRF-CEM = details: Leukemia, read-out: anti-tumour activity GI50
From the text: as §1

COLO 205 = details: COLON, read-out: anti-tumour activity GI50
From the text: as §1

DU-145 = details: PROST, read-out: anti-tumour activity GI50
From the text: as §1

EKVX = details: NSCLC, read-out: anti-tumour activity GI50
From the text: as §1

HCC2998 = details: COLON, read-out: anti-tumour activity GI50
From the text: as §1

HL-60(TB) = details: Leukemia, read-out: anti-tumour activity GI50
From the text: as §1

HOP-62 = details: NSCLC, read-out: anti-tumour activity GI50
From the text: as §1

HOP-92 = details: NSCLC, read-out: anti-tumour activity GI50
From the text: as §1

HS 578T = details: BREAST, read-out: anti-tumour activity GI50
From the text: as §1

HT29 = details: COLON, read-out: anti-tumour activity GI50
From the text: as §1

IGROV1 = details: OVAR, read-out: anti-tumour activity GI50
From the text: as §1

KM12 = details: COLON, read-out: anti-tumour activity GI50
From the text: as §1

LOX IMVI = details: MELAN, read-out: anti-tumour activity GI50
From the text: as §1

M14 = details: MELAN, read-out: anti-tumour activity GI50
From the text: as §1

MALME-3M = details: MELAN, read-out: anti-tumour activity GI50
From the text: as §1

MCF7 = details: BREAST, read-out: anti-tumour activity GI50
From the text: as §1

MDA-MB-231/ATCC = details: BREAST, read-out: anti-tumour activity GI50
From the text: as §1

MOLT-4 = details: Leukemia, read-out: anti-tumour activity GI50
From the text: as §1

NCI-H322M = details: NSCLC, read-out: anti-tumour activity GI50
From the text: as §1

NCI-H460 = details: NSCLC, read-out: anti-tumour activity GI50
From the text: as §1

NCI-H522 = details: NSCLC, read-out: anti-tumour activity GI50
From the text: as §1

NCI/ADRRES = details: BREAST, read-out: anti-tumour activity GI50
From the text: as §1

OVCAR-3 = details: OVAR, read-out: anti-tumour activity GI50
From the text: as §1

OVCAR-4 = details: OVAR, read-out: anti-tumour activity GI50
From the text: as §1

OVCAR-5 = details: OVAR, read-out: anti-tumour activity GI50
From the text: as §1

OVCAR-8 = details: OVAR, read-out: anti-tumour activity GI50
From the text: as §1

PC-3 = details: PROST, read-out: anti-tumour activity GI50
From the text: as §1

RPMI-8226 = details: Leukemia, read-out: anti-tumour activity GI50
From the text: as §1

SF-295 = details: CNS, read-out: anti-tumour activity GI50
From the text: as §1

SK-MEL-28 = details: MELAN, read-out: anti-tumour activity GI50
From the text: as §1

SK-MEL-2 = details: MELAN, read-out: anti-tumour activity GI50
From the text: as §1

SK-MEL-5 = details: MELAN, read-out: anti-tumour activity GI50
From the text: as §1

SKOV-3 = details: OVAR, read-out: anti-tumour activity GI50
From the text: as §1

SN12C = details: RENAL, read-out: anti-tumour activity GI50
From the text: as §1

SNB-19 = details: CNS, read-out: anti-tumour activity GI50
From the text: as §1

SR = details: Leukemia, read-out: anti-tumour activity GI50
From the text: as §1

T-47D = details: BREAST, read-out: anti-tumour activity GI50
From the text: as §1

U251 = details: CNS, read-out: anti-tumour activity GI50
From the text: as §1

UCC-62 = details: MELAN, read-out: anti-tumour activity GI50
From the text: as §1

COc1cc(C(=O)OC(C(=O)NCCN2CCCC(Cl)C2)C2(C)CO2)c2cccc(C)c2c1 (stereo not shown) [Compound 20]
GI50 435: 14.3 µM
GI50 (786-0): 100 µM
GI50 (A498): 17.7 µM
GI50 (A549/ATCC): 31.1 µM
GI50 (ACHN): 1.17 µM
GI50 (BT-549): 12.5 µM
GI50 (CAKI-1): 10.3 µM
GI50 (CCRF-CEM): 3.26 µM
GI50 (COLO 205): 13.8 µM
GI50 (DU-145): 4.49 µM
GI50 (EKVX): 17.5 µM
GI50 (HCC2998): 8.25 µM
GI50 (HL-60(TB)): 6.98 µM
GI50 (HOP-62): 100 µM
GI50 (HOP-92): 13.8 µM
GI50 (HS 578T): 17.5 µM
GI50 (HT29): 11 µM
GI50 (IGROV1): 12.1 µM
GI50 (KM12): 14.5 µM
GI50 (LOX IMVI): 3.62 µM
GI50 (M14): 100 µM
GI50 (MALME-3M): 14.8 µM
GI50 (MCF7): 14.7 µM
GI50 (MDA-MB-231/ATCC): 14 µM
GI50 (MOLT-4): 3 µM
GI50 (NCI-H322M): 17.9 µM
GI50 (NCI-H460): 13 µM
GI50 (NCI-H522): 7.77 µM
GI50 (NCI/ADRRES): 11.1 µM
GI50 (OVCAR-3): 18.6 µM
GI50 (OVCAR-4): 21.5 µM
GI50 (OVCAR-5): 16.1 µM
GI50 (OVCAR-8): 44.5 µM
GI50 (PC-3): 11.2 µM
GI50 (RPMI-8226): 4.18 µM
GI50 (SF-295): 13.1 µM
GI50 (SK-MEL-28): 11.6 µM
GI50 (SK-MEL-2): 18.6 µM
GI50 (SK-MEL-5): 1.56 µM
GI50 (SKOV-3): 19.7 µM
GI50 (SN12C): 6.76 µM
GI50 (SNB-19): 14.3 µM
GI50 (SR): 2.02 µM
GI50 (T-47D): 23 µM
GI50 (U251): 7.82 µM
GI50 (UCC-62): 14.7 µM
